{"source": "BindingDB's records for patent US11926614", "about": "(Oslo Universitetssykehus, 2024)", "target": "T1, Poly [ADP-ribose] polymerase tankyrase-2 (Homo sapiens, UniProt Q9H2K2)", "T1 sequence (Q9H2K2 whole entry)": "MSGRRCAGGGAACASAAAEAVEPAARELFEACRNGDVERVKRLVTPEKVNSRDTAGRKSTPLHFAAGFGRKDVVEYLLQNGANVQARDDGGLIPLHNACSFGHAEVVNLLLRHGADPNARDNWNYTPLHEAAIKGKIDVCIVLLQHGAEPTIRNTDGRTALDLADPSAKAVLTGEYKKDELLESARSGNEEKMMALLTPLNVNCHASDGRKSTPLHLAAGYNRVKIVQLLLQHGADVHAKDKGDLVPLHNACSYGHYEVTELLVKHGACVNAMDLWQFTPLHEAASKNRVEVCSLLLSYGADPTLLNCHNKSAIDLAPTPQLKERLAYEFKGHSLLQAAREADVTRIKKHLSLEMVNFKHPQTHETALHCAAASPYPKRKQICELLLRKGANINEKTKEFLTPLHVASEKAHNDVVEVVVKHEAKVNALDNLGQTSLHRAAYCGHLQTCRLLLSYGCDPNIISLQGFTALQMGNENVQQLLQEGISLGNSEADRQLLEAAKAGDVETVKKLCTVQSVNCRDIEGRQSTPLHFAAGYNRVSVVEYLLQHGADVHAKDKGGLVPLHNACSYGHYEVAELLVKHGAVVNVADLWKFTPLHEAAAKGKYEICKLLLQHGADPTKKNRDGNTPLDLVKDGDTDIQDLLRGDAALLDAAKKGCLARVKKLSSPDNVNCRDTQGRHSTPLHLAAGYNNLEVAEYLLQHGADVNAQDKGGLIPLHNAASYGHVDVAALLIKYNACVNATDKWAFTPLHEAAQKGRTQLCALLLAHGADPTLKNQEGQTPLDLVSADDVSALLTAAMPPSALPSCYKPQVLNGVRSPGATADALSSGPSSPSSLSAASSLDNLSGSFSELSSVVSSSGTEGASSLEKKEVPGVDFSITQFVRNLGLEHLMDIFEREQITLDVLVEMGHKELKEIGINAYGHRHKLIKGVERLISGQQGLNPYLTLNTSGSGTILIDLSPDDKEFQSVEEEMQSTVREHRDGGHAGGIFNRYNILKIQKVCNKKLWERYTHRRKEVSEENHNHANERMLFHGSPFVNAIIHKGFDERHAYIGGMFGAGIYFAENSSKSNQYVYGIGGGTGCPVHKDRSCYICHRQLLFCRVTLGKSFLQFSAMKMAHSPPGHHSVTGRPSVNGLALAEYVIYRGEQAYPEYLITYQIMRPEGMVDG", "experiment": "Biochemical Assay", "source_text": "IC50 calculations:XLfit (idbs) was used to determine the IC50-values in inhibition experiments. The following formula was chosen to fit the data points (Langmuir Binding Isotherm):fit=((A+(B*x))+[…]*(1−exp((−1*D)*x)))/D)), res=(y−fit)"}
{"molecule": "O=C(N[C@H]1C[C@H](c2nnc(-c3nccs3)n2-c2ccccc2F)C1)c1ccnc2cc(F)cnc12", "note": "[US11926614, Example 29]", "values": [{"measurement": "IC50", "value": 2, "unit": "nM"}]}
